Measurements reported in patent EP2929883A1, “Pyrazole derivatives as dihydroorotate dehydrogenase (DHODH) inhibitors” (INSTITUT PASTEUR, priority 2014, dated 2015).
Converted amounts (≈) assume the structure as drawn.

Test system: measles virus
Test: microbe, parasite or virus in culture
Conditions: Measles morbillivirus, 24 h

SMILES | MIC50 [µM]
CCOc1nn(-c2ncc(CC)cn2)c(C)c1-c1ccccc1 [example 153, 2-(3-ethoxy-5-methyl-4-phenyl-1H-pyrazol-1-yl)-5-ethylpyrimidine] | 0.5 to 5 (≈ 0.154 to 1.54 µg/mL)
CC(C)Oc1nn(-c2ccc(C3CC3)cn2)c(Cl)c1Oc1ccccc1 [example 191, 2-(5-chloro-3-isopropoxy-4-phenoxy-1H-pyrazol-1-yl)-5-cyclopropylpyridine] | 0.05 to 0.5 (≈ 0.0185 to 0.185 µg/mL)
CCOc1nn(-c2nccc(C)n2)c(C)c1Cc1ccccc1 [example 113, 2-(4-benzyl-3-ethoxy-5-methyl-1H-pyrazol-1-yl)-4-methylpyrimidine] | 0.5 to 5 (≈ 0.154 to 1.54 µg/mL)
Cc1c(Oc2c(F)cccc2F)c(OC(C)C)nn1-c1ccc(C2CC2)nn1 [example 7, 3-cyclopropyl-6-(4-(2,6-difluorophenoxy)-3-isopropoxy-5-methyl-1H-pyrazol-1-yl)pyridazine] | 0.0005 to 0.05 (≈ 0.000193 to 0.0193 µg/mL)
CCOc1cc(C(=O)c2ccc(Cl)cc2)n(-c2ccccn2)n1 [example 149, (4-chlorophenyl)(3-ethoxy-1-(pyridin-2-yl)-1H-pyrazol-5-yl)methanone] | > 5
COc1cnc(-n2nc(OC(C)C)c(Oc3c(F)cccc3F)c2C)nc1 [example 62, 2-(4-(2,6-difluorophenoxy)-3-isopropoxy-5-methyl-1H-pyrazol-1-yl)-5-methoxypyrimidine] | 0.0005 to 0.05 (≈ 0.000188 to 0.0188 µg/mL)
Cc1c(Oc2ccccc2F)c(OC(C)C)nn1-c1ncc(C2CC2)cn1 [example 51, 5-cyclopropyl-2-(4-(2-fluorophenoxy)-3-isopropoxy-5-methyl-1H-pyrazol-1-yl)pyrimidine] | 0.0005 to 0.05 (≈ 0.000184 to 0.0184 µg/mL)
CCOc1nn(-c2ccccn2)c(C)c1Cc1cccc(Cl)c1 [example 163, 2-(4-(3-chlorobenzyl)-3-ethoxy-5-methyl-1H-pyrazol-1-yl)pyridine] | > 5
COc1cc(-c2ccc(Cl)c(Cl)c2)n(-c2ccccn2)n1 [example 143, 2-(5-(3,4-dichlorophenyl)-3-methoxy-1H-pyrazol-1-yl)pyridine] | > 5
CCOc1cc(Cc2ccccc2)n(-c2ncc(CC)cn2)n1 [example 2, 2-(5-benzyl-3-ethoxy-1H-pyrazol-1-yl)-5-ethylpyrimidine] | > 5
CCOc1nn(-c2ncc(CC)cn2)c(C)c1Oc1cccc(Cl)c1Cl [example 80, 2-(4-(2,3-dichlorophenoxy)-3-ethoxy-5-methyl-1H-pyrazol-1-yl)-5-ethylpyrimidine] | 0.05 to 0.5 (≈ 0.0197 to 0.197 µg/mL)
CCOc1nn(-c2ncc(CC)cn2)c(C)c1-c1ccc(F)cc1F [example 154, 2-(4-(2,4-difluorophenyl)-3-ethoxy-5-methyl-1H-pyrazol-1-yl)-5-ethylpyrimidine] | > 5
CCOc1nn(-c2ncc(CC)cn2)c(C)c1Oc1ccccc1F [example 73, 2-(3-ethoxy-4-(2-fluorophenoxy)-5-methyl-1H-pyrazol-1-yl)-5-ethylpyrimidine] | 0.05 to 0.5 (≈ 0.0171 to 0.171 µg/mL)
CCOc1nn(-c2ncc(CC)cn2)c(C)c1-c1ccc(OC)cc1 [example 161, 2-(3-ethoxy-4-(4-methoxyphenyl)-5-methyl-1H-pyrazol-1-yl)-5-ethylpyrimidine] | 0.5 to 5 (≈ 0.169 to 1.69 µg/mL)
CC(C)Oc1nn(-c2ncc(C3CC3)cn2)cc1[S+]([O-])c1ccccc1 (stereo not shown) [example 182, 5-cyclopropyl-2-(3-isopropoxy-4-(phenylsulfinyl)-1H-pyrazol-1-yl)pyrimidine] | 0.5 to 5 (≈ 0.184 to 1.84 µg/mL)
CCc1cnc(-n2nc(CC(C)C)c(Cc3ccccc3)c2C)nc1 [example 121, 2-(4-benzyl-3-isobutyl-5-methyl-1H-pyrazol-1-yl)-5-ethylpyrimidine] | 0.0005 to 0.05 (≈ 0.000167 to 0.0167 µg/mL)
Cc1c(Oc2ccccc2F)c(OC(C)C)nn1-c1ccc(C2CC2)cn1 [example 69, 5-cyclopropyl-2-(4-(2-fluorophenoxy)-3-isopropoxy-5-methyl-1H-pyrazol-1-yl)pyridine] | 0.0005 to 0.05 (≈ 0.000184 to 0.0184 µg/mL)
CCc1cnc(-n2nc(OC(C)C)c(Oc3ccccc3F)c2C)nc1 [example 50, 5-ethyl-2-(4-(2-fluorophenoxy)-3-isopropoxy-5-methyl-1H-pyrazol-1-yl)pyrimidine] | 0.0005 to 0.05 (≈ 0.000178 to 0.0178 µg/mL)
CCOc1nn(-c2ccccn2)c(C)c1Cc1ccccc1Cl [example 162, 2-(4-(2-chlorobenzyl)-3-ethoxy-5-methyl-1H-pyrazol-1-yl)pyridine] | > 5
CCOc1nn(-c2ccccn2)c(C)c1-c1cccc(Cl)c1 [example 156, 2-(4-(3-chlorophenyl)-3-ethoxy-5-methyl-1H-pyrazol-1-yl)pyridine] | > 5
CCCc1cnc(-n2nc(OC(C)C)c(Oc3c(F)cccc3F)c2C)nc1O [example 117A, 2-(4-(2,6-difluorophenoxy)-3-isopropoxy-5-methyl-1H-pyrazol-1-yl)-5-propylpyrimidin-4-ol] | 0.05 to 0.5 (≈ 0.0202 to 0.202 µg/mL)
Cc1c(Oc2c(F)cccc2F)c(OC(C)C)nn1-c1ccc(C(C)(F)F)cn1 [example 91, 5-(1,1-difluoroethyl)-2-(4-(2,6-difluorophenoxy)-3-isopropoxy-5-methyl-1H-pyrazol-1-yl)pyridine] | 0.05 to 0.5 (≈ 0.0205 to 0.205 µg/mL)
CC(C)Oc1nn(-c2ncc(C3CC3)cn2)cc1Sc1ccccc1 [example 104, 5-cyclopropyl-2-(3-isopropoxy-4-(phenylthio)-1H-pyrazol-1-yl)pyrimidine] | 0.0005 to 0.05 (≈ 0.000176 to 0.0176 µg/mL)

SMILES | MIC50 [µM]
CCc1cnc(-n2nc(OC(C)C)c(Oc3cc(F)ccc3F)c2C)nc1 [example 19, 2-(4-(2,5-difluorophenoxy)-3-isopropoxy-5-methyl-1H-pyrazol-1-yl)-5-ethylpyrimidine] | 0.0005 to 0.05 (≈ 0.000187 to 0.0187 µg/mL)
CCOc1nn(-c2ccc(C3CC3)cn2)c(C)c1Oc1cc(Cl)cc(Cl)c1 [example 96, 5-cyclopropyl-2-(4-(3,5-dichlorophenoxy)-3-ethoxy-5-methyl-1H-pyrazol-1-yl)pyridine] | 0.05 to 0.5 (≈ 0.0202 to 0.202 µg/mL)
Cc1c(Oc2ccc(F)cc2)c(OC(C)C)nn1-c1ccc(C2CC2)cn1 [example 98, 5-cyclopropyl-2-(4-(4-fluorophenoxy)-3-isopropoxy-5-methyl-1H-pyrazol-1-yl)pyridine] | 0.5 to 5 (≈ 0.184 to 1.84 µg/mL)
CCOc1nn(-c2ccc(C(C)C)cn2)c(C)c1Cc1ccccc1 [example 170, 2-(4-benzyl-3-ethoxy-5-methyl-1H-pyrazol-1-yl)-5-isopropylpyridine] | 0.5 to 5 (≈ 0.168 to 1.68 µg/mL)
CCOc1nn(-c2ncc(C)cn2)c(C)c1Cc1ccccc1 [example 171, 2-(4-benzyl-3-ethoxy-5-methyl-1H-pyrazol-1-yl)-5-methylpyrimidine] | 0.0005 to 0.05 (≈ 0.000154 to 0.0154 µg/mL)
CCOc1nn(-c2ncc(C3CC3)cc2C#N)c(C)c1Cc1ccccc1 [example 36, 2-(4-benzyl-3-ethoxy-5-methyl-1H-pyrazol-1-yl)-5-cyclopropylnicotinonitrile] | 0.05 to 0.5 (≈ 0.0179 to 0.179 µg/mL)
CC(C)Oc1nn(-c2ncc(C3CC3)cc2F)cc1Oc1ccccc1 [example 70, 5-cyclopropyl-3-fluoro-2-(3-isopropoxy-4-phenoxy-1H-pyrazol-1-yl)pyridine] | 0.0005 to 0.05 (≈ 0.000177 to 0.0177 µg/mL)
Cc1c(Oc2c(F)cccc2F)c(OC(C)C)nn1-c1ccc(C(C)(C)O)cn1 [example 84, 2-(6-(4-(2,6-difluorophenoxy)-3-isopropoxy-5-methyl-1H-pyrazol-1-yl)pyridin-3-yl)propan-2-ol] | 0.05 to 0.5 (≈ 0.0202 to 0.202 µg/mL)
CC(C)Oc1nn(-c2ncc(C3CC3)cn2)cc1Oc1ccccc1 [example 100, 5-cyclopropyl-2-(3-isopropoxy-4-phenoxy-1H-pyrazol-1-yl)pyrimidine] | 0.05 to 0.5 (≈ 0.0168 to 0.168 µg/mL)
CCOc1nn(-c2ccc(Br)cn2)c(C)c1Cc1ccccc1 [example 41, 2-(4-benzyl-3-ethoxy-5-methyl-1H-pyrazol-1-yl)-5-bromopyridine] | > 5
CCCCc1c(OCC)nn(-c2ncc(CC)cn2)c1C [example 114, 2-(4-butyl-3-ethoxy-5-methyl-1H-pyrazol-1-yl)-5-ethylpyrimidine] | 0.5 to 5 (≈ 0.144 to 1.44 µg/mL)
Cc1c(Oc2cccnc2)c(OC(C)C)nn1-c1ncc(C2CC2)cn1 [example 110, 5-cyclopropyl-2-(3-isopropoxy-5-methyl-4-(pyridin-3-yloxy)-1H-pyrazol-1-yl)pyrimidine] | 0.5 to 5 (≈ 0.176 to 1.76 µg/mL)
Cc1c(Cc2ccccc2)c(OC(C)C)nn1-c1ncccc1C#N [example 89, 2-(4-benzyl-3-isopropoxy-5-methyl-1H-pyrazol-1-yl)nicotinonitrile] | 0.5 to 5 (≈ 0.166 to 1.66 µg/mL)
CCc1ccc(-n2nc(OC(C)C)c(Oc3c(F)cccc3F)c2C)cn1 [example 129, 5-(4-(2,6-difluorophenoxy)-3-isopropoxy-5-methyl-1H-pyrazol-1-yl)-2-ethylpyridine] | 0.0005 to 0.05 (≈ 0.000187 to 0.0187 µg/mL)
CCOc1nn(-c2ncc(CC)cn2)c(CN2CCOCC2)c1Cc1ccccc1 [example 115, 4-((4-benzyl-3-ethoxy-1-(5-ethylpyrimidin-2-yl)-1H-pyrazol-5-yl)methyl)morpholine] | > 5
Cc1c(Oc2c(F)cccc2F)c(OC(C)C)nn1-c1ncc(Br)cc1F [example 86, 5-bromo-2-(4-(2,6-difluorophenoxy)-3-isopropoxy-5-methyl-1H-pyrazol-1-yl)-3-fluoropyridine] | 0.05 to 0.5 (≈ 0.0221 to 0.221 µg/mL)
CCOc1nn(-c2ncc(CC)cn2)c(C)c1I [example 106, 2-(3-ethoxy-4-iodo-5-methyl-1H-pyrazol-1-yl)-5-ethylpyrimidine] | > 5
Cc1c(Cc2ccccc2F)c(OC(C)C)nn1-c1ccc(C2CC2)cn1 [example 90, 5-cyclopropyl-2-(4-(2-fluorobenzyl)-3-isopropoxy-5-methyl-1H-pyrazol-1-yl)pyridine] | 0.05 to 0.5 (≈ 0.0183 to 0.183 µg/mL)
Cc1c(Oc2ccccc2F)c(OC(C)C)nn1-c1ncc(C2CC2)cc1C#N [example 52, 5-cyclopropyl-2-(4-(2-fluorophenoxy)-3-isopropoxy-5-methyl-1H-pyrazol-1-yl)nicotinonitrile] | 0.05 to 0.5 (≈ 0.0196 to 0.196 µg/mL)
CCOc1nn(-c2ccc(C3CC3)cn2)c(C)c1C(O)c1ccccc1 (stereo not shown) [example 177, (1-(5-cyclopropylpyridin-2-yl)-3-ethoxy-5-methyl-1H-pyrazol-4-yl)(phenyl)methanol] | 0.0005 to 0.05 (≈ 0.000175 to 0.0175 µg/mL)
Cc1c(Cc2ccccc2)c(OC(C)C)nn1-c1ncc(C2CC2)cn1 [example 21, 2-(4-benzyl-3-isopropoxy-5-methyl-1H-pyrazol-1-yl)-5-cyclopropylpyrimidine] | 0.0005 to 0.05 (≈ 0.000174 to 0.0174 µg/mL)
CCOc1nn(-c2cccc(C)n2)c(C)c1Cc1ccccc1 [example 33, 2-(4-benzyl-3-ethoxy-5-methyl-1H-pyrazol-1-yl)-6-methylpyridine] | > 5
COc1cc(-c2ccc(C(C)(C)C)cc2)n(-c2ccccn2)n1 [example 146, 2-(5-(4-tert-butylphenyl)-3-methoxy-1H-pyrazol-1-yl)pyridine] | > 5
